Measured values as given in patent publication US20210137966A1, “VIRUCIDAL COMPOUNDS AND USES THEREOF” (priority 2016, published 2021).

Tests used:
LV-VSV-G = assay type: cell-based, VSV-G pseudotyped lentivirus
HPV-16 = test: Evaluation of virucidal activity against HPV-16; assay type: cell-based, human papillomavirus (HPV); conditions: FIG. 6
Description: (§1) Evaluation of Virucidal Activity Against HSV-2, HPV-16
(§2) Viral titers were calculated at dilutions at which the nanoparticle was not effective

HSV-2 [1] = test: Evaluation of virucidal activity against HSV-2; assay type: cell-based; conditions: HSV-2, virucidal assay (FIG. 1/2 bottom)
Description: as §1, §2

HSV-2 [2] = test: Inhibition assay HSV-2 (dose response, plaque reduction in Vero cells); assay type: cell-based; conditions: HSV-2, dose response assay (FIG. 1/2 top)
Description: The effect of cyclodextrins (CDs) on HSV infection was evaluated by a plaque reduction assay. Vero cells were pre-plated 24 h in advance in 24-well plates at a density of 10^5 cells. Increasing concentrations of cyclodextrins were incubated with HSV-2 (multiplicity of infection (MOI) 0.0003 plaque forming units (pfu)/cell) at 37° C. for 1 hour and then the mixtures were added to the cells. Following virus adsorption (2 h at 37° C.), the virus inoculum was removed, the cells were washed with medium and then overlaid with a medium containing 1.2% methylcellulose. After 24 h (HSV-2) of incubation at 37° C., cells were fixed and stained with 0.1% of crystal violet in 20% ethanol and viral plaques were counted. The concentration producing 50% reduction in plaque formation (IC50) was determined using the Prism software by comparing drug-treated and untreated wells.

Molecule | Virucidal assay, Dilutions: 1:10 (LV-VSV-G) | Virucidal assay, Dilutions: Stock (LV-VSV-G) | Virucidal effect against Lenti virus (LV-VSV-G) | Virucidal effect against human papillomavirus (HPV) (HPV-16) | Virucidal effect against HSV-2 in virucidal assay (HSV-2 [1]) | Inhibition of HSV-2 in dose response assay (HSV-2 [2])
O[C@@H]1[C@@H](O)[C@H]2O[C@H]3[C@H](O)[C@@H](O)[C@@H](O[C@H]4[C@H](O)[C@@H](O)[C@@H](O[C@H]5[C@H](O)[C@@H](O)[C@@H](O[C@H]6[C@H](O)[C@@H](O)[C@@H](O[C@H]7[C@H](O)[C@@H](O)[C@@H](O[C@H]8[C@H](O)[C@@H](O)[C@@H](O[C@@H]1[C@@H](CI)O2)O[C@@H]8CI)O[C@@H]7CI)O[C@@H]6CI)O[C@@H]5CI)O[C@@H]4CI)O[C@@H]3CI [CD1, Heptakis-6-iodo-6-deoxy-beta-cyclodextrin] | 27.38 | 85.49 |  |  |  | 
O=S(=O)(O)CCCCCCCCCCCSCC1OC2OC3C(CSCCCCCCCCCCCS(=O)(=O)O)OC(OC4C(CSCCCCCCCCCCCS(=O)(=O)O)OC(OC5C(CSCCCCCCCCCCCS(=O)(=O)O)OC(OC6C(CSCCCCCCCCCCCS(=O)(=O)O)OC(OC7C(CSCCCCCCCCCCCS(=O)(=O)O)OC(OC8C(CSCCCCCCCCCCCS(=O)(=O)O)OC(OC1C(O)C2O)C(O)C8O)C(O)C7O)C(O)C6O)C(O)C5O)C(O)C4O)C(O)C3O (stereo not shown) [CD2] |  |  | virucidal effect | virucidal effect | Virucidal effect observed | 
beta-cyclodextrin sulfonate [reference compound] |  |  |  |  | no virucidal effect is observed | Inhibition is observed at high concentrations
